Assay results as given in patent US10857232B2, “Surfactant composition” (Enza Biotech AB, priority 2013, dated 2020).

Key:
[1] = literature values [11-13]; cited from earlier work
insulin = insulin (Homo sapiens, UniProt P01308); experiment: Inhibition of peptide and protein aggregation (insulin precipitation); format: physicochemical; settings: insulin 0.4 mg/ml, surfactant 1.4 mg/ml, pH 6.8 or 7.4, 25 and 40° C., 2-12 weeks
Excerpt: Inhibition of peptide and protein aggregation is crucial for the physical stability and safety, particularly for pharmaceutics for injection (injectabilia). Therefore, surfactants are normally applied as inhibitors of peptide and protein aggregation in such formulations. The ability, of a C16G8/14 mixture to inhibit peptide and protein aggregation in solution was investigated using insulin as model peptide.

insulin, sequence (P01308 25-54 limits assumed, species assumed): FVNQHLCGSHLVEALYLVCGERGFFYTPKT
insulin, sequence (P01308 90-110 limits assumed, species assumed): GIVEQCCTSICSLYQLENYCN

| SMILES | Krafft point [1] [°C] | Inhibition of insulin precipitation (visual inspection) (insulin) |
| --- | --- | --- |
| CCCCCCCCCCCCO[C@@H]1O[C@H](CO)[C@@H](O)[C@H](O)[C@H]1O [C12G1] | 38 |  |
| CCCCCCCCCCCCCCO[C@@H]1O[C@H](CO)[C@@H](O[C@@H]2O[C@@H](CO)[C@H](O)[C@@H](O)[C@@H]2O)[C@H](O)[C@H]1O (stereo in doubt) [C14G2, tetradecylmaltoside] | 32 | unable to inhibit precipitation, even under non-accelerated conditions |
